# Laboratory results as given in patent publication US10533018B2, “Antimicrobial prochelators to target drug-resistant bacteria and methods of making and using the same” (Duke University, priority 2015, dated 2020).
# Columns and labels:
# [1] = test system: several strains; conditions: concentrations below 1 mM
# Source text: [39, 40] […] To control for the impact of copper alone, the cultures of 5 bacterial strains were subjected to a serial dilution of CuCl2. […] [41] To control for the impact of limited Cu, several strains were also challenged with a serial dilution of BCS.
# [2] = test system: E. coli; type: cell-based; conditions: at 52 μM DB4-51
# Source text: Further evidence for the influence of bioavailable copper on the IC50 of DB4-51 was obtained by using a checkerboard assay. […] Serial dilutions of DB4-51 in LB were arrayed against dilutions of chelator (BCS and EDTA). The antagonism exists between our prochelator, DB4-51, and the strong, extracellular chelators BCS and EDTA. […] However, at lower concentrations, EDTA works antagonistically with DB4-51 by restoring bacterial growth. This trend further underscores the influence that copper and potentially other metals have on the growth inhibitory activity of DB4-51.
compound,measurement,setting,value
"Cc1cc(-c2ccc(S(=O)(=O)O)cc2)c2ccc3c(-c4ccc(S(=O)(=O)O)cc4)cc(C)nc3c2n1 [BCS, bathocuproine disulfonate]",effect on bacterial growth,[1],did not inhibit bacterial growth
same,concentration that restored E. coli growth,[2],≥ 125 µM
